Earlier results on one molecule are cited in PubChem BioAssay AID1259409 (Chemical Carcinogenesis Research Information System (CCRIS), 2018).

This data set concerns rodent chemically induced tumor inhibition, incidence and multiplicity. In words: CCRIS tumor inhibitor studies. Conditions: Route [Inhibitor]: ORAL, Promoter: NONE USED.

As for `CC1=C(/C=C/C(C)=C/C=C/C(C)=C\C(=O)O)C(C)(C)CCC1`, the “tumour outcome (control, treated, inhibition, significance)” value reads like this: (Carcinogen: N-METHYL-N-NITROSOUREA, 684-93-5, Dose [Inhibitor]: 128 MG/KG DIET DAILY FOR 55 WK STARTING 1 WK AFTER LAST CARCINOGEN EXPOSURE (STUDY DURATION: 65 WK), Species: HAMSTER, Strain/Sex: SYRIAN/MALE, Target Tissue: Type of Lesion: TRACHEA: TUMOR, Dose [Carcinogen]: 1% FOR 7 SECONDS 2/WK FOR 9 WK) 30/37 (81%), 26/34 (76%), 6%, not significant; (Carcinogen: N-METHYL-N-NITROSOUREA, 684-93-5, Dose [Inhibitor]: 172 MG/KG DIET DAILY FOR 55 WK STARTING 1 WK AFTER LAST CARCINOGEN EXPOSURE (STUDY DURATION: 67.5 WK), Species: HAMSTER, Strain/Sex: SYRIAN/MALE, Target Tissue: Type of Lesion: TRACHEA: TUMORS, Dose [Carcinogen]: 1% FOR 7 SECONDS 2/WK FOR 11.5 WK) 24/40 (60%), 24/40 (60%), 0%, not significant; (Carcinogen: N-METHYL-N-NITROSOUREA, 684-93-5, Dose [Inhibitor]: 240 MG/KG OF DIET DAILY STARTING 5 D AFTER FINAL CARCINOGEN TREATMENT AND CONTINUING THROUGH END OF STUDY (STUDY DURATIO, Species: RAT, Strain/Sex: F344/MALE, Target Tissue: Type of Lesion: COLON: INVASIVE TUBULOPAPILLARY ADENOCARCINOMA, Dose [Carcinogen]: 0.5 MG 2/WK FOR 8 WK) 33%, 27%, 18%, not significant; (Carcinogen: N-METHYL-N-NITROSOUREA, 684-93-5, Dose [Inhibitor]: 240 MG/KG OF DIET DAILY STARTING 5 D AFTER FINAL CARCINOGEN TREATMENT AND CONTINUING THROUGH END OF STUDY (STUDY DURATIO, Species: RAT, Strain/Sex: F344/MALE, Target Tissue: Type of Lesion: COLON: INVASIVE TUBULOPAPILLARY ADENOCARCINOMA, Dose [Carcinogen]: 1 MG 2/WK FOR 8 WK) 80%, 90%, -13%, not significant; (Carcinogen: N-METHYL-N-NITROSOUREA, 684-93-5, Dose [Inhibitor]: 240 MG/KG OF DIET DAILY STARTING 5 D AFTER FINAL CARCINOGEN TREATMENT AND CONTINUING THROUGH END OF STUDY (STUDY DURATIO, Species: RAT, Strain/Sex: F344/MALE, Target Tissue: Type of Lesion: COLON: INVASIVE TUBULOPAPILLARY ADENOCARCINOMA, Dose [Carcinogen]: 2 MG 2/WK FOR 8 WK) 95%, 100%, -5%, not significant; (Carcinogen: N-NITROBIS(2-OXOPROPYL)AMINE, 60559-38-4, Dose [Inhibitor]: 0.4 MMOL/KG/D IN DIET STARTING 1 WK AFTER CARCINOGEN TREATMENT AND CONTINUING THROUGH THE END OF THE STUDY (STUDY DURATI, Species: HAMSTER, Strain/Sex: SYRIAN/FEMALE, Target Tissue: Type of Lesion: LIVER: BENIGN TUMOR, Dose [Carcinogen]: 40 MG/KG BW ONCE) 4/20 (20%), 10/15 (67%), -235%, p<0.05. Further, the “tumour outcome (control, treated, inhibition, significance)” value reads like this: (Carcinogen: N-NITROBIS(2-OXOPROPYL)AMINE, 60559-38-4, Dose [Inhibitor]: 0.4 MMOL/KG/D IN DIET STARTING 1 WK AFTER CARCINOGEN TREATMENT AND CONTINUING THROUGH THE END OF THE STUDY (STUDY DURATI, Species: HAMSTER, Strain/Sex: SYRIAN/FEMALE, Target Tissue: Type of Lesion: PANCREAS: DUCTULAR ADENOMA, Dose [Carcinogen]: 40 MG/KG BW ONCE) 12/20 (60%), 7/14 (50%), 17%, not significant; (Carcinogen: N-NITROBIS(2-OXOPROPYL)AMINE, 60559-38-4, Dose [Inhibitor]: 0.4 MMOL/KG/D IN DIET STARTING 1 WK AFTER CARCINOGEN TREATMENT AND CONTINUING THROUGH THE END OF THE STUDY (STUDY DURATI, Species: HAMSTER, Strain/Sex: SYRIAN/FEMALE, Target Tissue: Type of Lesion: PANCREAS: DUCTULAR CARCINOMA, Dose [Carcinogen]: 40 MG/KG BW ONCE) 6/20 (30%), 9/14 (64%), -113%, not significant; (Carcinogen: N-NITROBIS(2-OXOPROPYL)AMINE, 60559-38-4, Dose [Inhibitor]: 0.4 MMOL/KG/D IN DIET STARTING 1 WK AFTER CARCINOGEN TREATMENT AND CONTINUING THROUGH THE END OF THE STUDY (STUDY DURATI, Species: HAMSTER, Strain/Sex: SYRIAN/MALE, Target Tissue: Type of Lesion: PANCREAS: DUCTULAR CARCINOMA, Dose [Carcinogen]: 40 MG/KG BW ONCE) 5/24 (21%), 9/24 (38%), -81%, not significant; (Carcinogen: N-NITROBIS(2-OXOPROPYL)AMINE, 60559-38-4, Dose [Inhibitor]: 0.4 OR 0.8 MMOL/KG DIET DAILY STARTING 1 WK AFTER CARCINOGEN TREATMENT AND CONTINUING THROUGH THE END OF THE STUDY (STUD, Species: HAMSTER, Strain/Sex: SYRIAN/FEMALE, Target Tissue: Type of Lesion: LIVER: BENIGN TUMOR, Dose [Carcinogen]: 40 MG/KG BW ONCE) 4/20 (20%), 10/15 (67%), -235%, p<0.05; (Carcinogen: N-NITROBIS(2-OXOPROPYL)AMINE, 60559-38-4, Dose [Inhibitor]: 0.4 OR 0.8 MMOL/KG DIET DAILY STARTING 1 WK AFTER CARCINOGEN TREATMENT AND CONTINUING THROUGH THE END OF THE STUDY (STUD, Species: HAMSTER, Strain/Sex: SYRIAN/FEMALE, Target Tissue: Type of Lesion: PANCREAS: DUCTULAR ADENOMA, Dose [Carcinogen]: 10 MG/KG BW ONCE) 5/23 (22%), 9/23 (39%), -77%, not significant.
